Experimental findings from ChEMBL document CHEMBL1147960, “Spectroscopic studies of DNA binding modes of cation-substituted anthrapyrazoles derived from emodin” (Eur J Med Chem, 2007) are described below.

The structures appear in SMILES notation.

A short description of test [1]: Cytotoxicity against mouse LLC cells. In kind it is functional, cell-based. The note with it: Lewis lung carcinoma.
A further test relates to HepG2. Briefly: Cytotoxicity against human HepG2 cells. In kind it is functional, cell-based.
The next test has as its system B16. As to the kind of experiment: Cytotoxicity against mouse B16 cells. In kind it is functional, cell-based.
The subject of a further test is DNA. Briefly: Binding affinity to calf thymus DNA. In kind it is nucleic-acid assay, Bos taurus.

As to `CCN(CC)CCn1nc2c3c(cc(C)cc31)C(=O)c1cc(OC)cc(OC)c1-2`, the IC50 (commonly the concentration needed to halve the response being measured) turned out to be 4.5 µM in test [1], 4.9 µM in the test on HepG2 and 3.6 µM with B16. The compound also returned a Kb in the test on DNA of 552000 M⁻¹.

With `CCN(CC)CCNCCn1nc2c3c(cc(C)cc31)C(=O)c1cc(OC)cc(OC)c1-2`, the IC50 in test [1] was 12.8 µM; in the test on HepG2, 37.6 µM; in the test on B16, 10.1 µM. Also, the Kb with DNA was found to be 253000 M⁻¹.

For the compound `COc1cc(OC)c2c(c1)C(=O)c1cc(C)cc3c1c-2nn3CCN1CCN(C)CC1`, the IC50 in test [1] turned out to be 8.9 µM; in the test on HepG2, 7.2 µM; in the test with B16, 20.1 µM. The same compound came in with a Kb with DNA of 698000 M⁻¹.

On to `Cc1cc(O)c2c(c1)C(=O)c1cc(O)cc(O)c1C2=O` [EMODIN], for which the results for the IC50 (in test [1]; with HepG2; with B16) were over 100 µM, 55.1 µM and over 100 µM, respectively. Further, in the test on DNA, the Kb is 68000 M⁻¹.
